The results in this text go back to patent publication US20030013711A1, “Chemical derivatives and their application as antitelomerase agents” (priority 2001, published 2003).

The experiment relates to A549 cells. Briefly: Cytotoxicity on human tumor line A549 (neutral red). Particulars: 96 hours incubation. Type of experiment: cell-based. As to the method: The Cytotoxic Biological Activity on Human Tumor Lines is Determined According to the Following Experimental Protocol:
The human cell lines KB and A549 are obtained from the ATCC (American Type Culture Collection, Rockville, USA). The A549 cells are cultured as a layer in a culture flask in RPMI 1640 medium, L-glutamine to 2 mM, 200 U/ml penicillin, 200 μg/ml streptomycin and supplemented with 10% heat-inactivated fetal calf serum. The KB cells are cultured as a layer in a culture flask in Dulbelco's medium containing L-glutamine to 2 mM, 200 U/ml penicillin, 200 μg/ml streptomycin and supplemented with 10% heat-inactivated fetal calf serum.
The cells in exponential growth phase are trypsinized, washed in PBS 1×, and inoculated in 96-well microplates (Costar) at a concentration of 4×10^4 cells/ml for A549 and 1.5×10^4 cells/ml (0.2 ml/well) for KB cells. The cells are then incubated for 96 hours in the presence of variable concentrations of test compounds (10, 1, 0.1 and 0.01 μg/ml, each point being determined in quadruplicate). Sixteen hours before the end of the incubation, neutral red is added to a final concentration of 0.02% in each well. […] The cellular incorporation of the dye, which reflects the cell growth, is evaluated by spectrophotometry at a wavelength of 540 nm for each sample using a Dynatech MR5000 reading machine. […]

The term IC50 denotes the concentration that gives 50% inhibition. Turning to `CSc1nc(Nc2ccc3nc(C)cc(N)c3c2)nc(OC2CCN(C)CC2)n1` [Example 3, N6-[6-(1-methylpiperid-4-yloxy)-4-methylsulfanyl-[1,3,5]triazin-2-yl]-2-methylquinoline-4,6-diamine], the half-inhibitory concentration (IC50) amounted to 6 µM.
